Assay results reported in US20100286247A1, “Methods of Protection from Oxidative Stress” (Trustees of Boston University, priority 2005, published 2010).
{P} = phosphate

How the values were obtained:
[1] = tested on: intracellular ROS in normal newborn human dermal fibroblasts; test: Dichlorofluorescein diacetate (DCF) assay of intracellular ROS, FACScan; format: cell-based; conditions: for DCF fluorescence (intracellular ROS) compared to diluent: 100 μM pTT / pCC, 40 μM TO / TOC1 / TOC2
Method: Normal newborn human dermal fibroblasts were cultured from foreskin specimens into DMEM supplemented with 10% CS as described above. Due to the large number of cells needed for time course experiments, and to minimize donor variability, in dichlorofluorescein diacetate FACS experiments cells from three different donors were combined.
Purified lyophilized oligonucleotides were obtained and prepared for cell treatment as described above. All treatments involved a single stimulation with T-oligo, after which cells were harvested at various times without medium changes or addition of more T-oligo. Treatment doses were 100 μM pTT and 40 μM TO except in dose-response experiments; these concentrations were determined in previous experiments to be optimal for measuring DNA damage responses using these T-oligos.^142,150,228
Complementary and scrambled oligonucleotides were chosen for each T-oligo. pAA and pCC were used as controls for pTT, and the complementary 11-base pCTAACCCTAAC (TOC1, SEQ ID NO: 22) and a scrambled sequence pGATCGATCGAT (TOC2, SEQ ID NO: 23) were used as controls for the T-oligo TO.
H2DCFDA stock solution (1 mg/ml) was thawed and diluted in Hanks' Balanced Salt Solution, 1× liquid without phenol red (GIBCO Invitrogen, Carlsbad, Calif.), to a working concentration of 100 μM immediately before use. H2DCFDA is converted by intracellular esterases to dichlorofiuorescein (DCF). When oxidized by intracellular ROS, it will fluoresce at 530 nm when excited by 480 nm light. […] All work involving DCF was conducted in minimal room light. Peaks on FACScan plots that shift to the right indicate greater fluorescence and increased ROS levels. For NADPH oxidase inhibitor studies using DPI,^237,239 the DPI stock solution was added directly to DCF treatment solution to achieve a final DPI treatment concentration of 50 μM.
Hydrogen peroxide positive controls were used to rule out saturation of the DCF probe in the T-oligo dose response experiments. Fibroblasts were exposed to 1 mM, 5 mM and 10 mM H2O2 solutions in PBS for 15 minutes following DCF incubation for 30 minutes, harvested and analyzed as described above.
The horseradish peroxidase assay data was analyzed by one-way ANOVA. DCF assay FACScan results were analyzed using Cellquest software (Becton-Dickinson, Calif.). All peak positions on x-axis of the fluorescence histogram plot were determined visually (using the software) and recorded as a number. Peak position values were then compared using one-way ANOVA.

SOD1 mRNA = test: Northern blot analysis of antioxidant enzyme mRNA: SOD1; format: cell-based, human; conditions: 100 μM pTT, 8-72 hours, three donors
Method: (§1) Cell culture followed previously published methods.^92 Primary human newborn dermal fibroblasts were cultured from neonatal circumcised foreskin specimens. The skin samples were treated overnight in a 0.25% trypsin solution at 4° C. to separate the epidermis from the dermis. The separated dermis was then cut into pieces and plated onto etched plastic tissue culture dishes. Primary culture medium consisted of DMEM supplemented with 10% bovine CS, 50 U/ml penicillin and 50 μg/ml streptomycin sulfate. […] Secondary culture medium consisted of DMEM supplemented with 10% CS.
(§2) Purified 5′-phosphorylated thymidine dinucleotides (pTT) (Midland Certified Reagents, Inc., Texas) purified by gel filtration and analyzed by mass spectroscopy, were obtained in lyophilized form. […] The stock solution was syringe filter-sterilized through a 0.2 μm pore filter and spectrophotometrically analyzed (absorbance at 260 and 280 nm) to determine the concentration, and frozen in aliquots at −20° C. […]
(§3) Cells were harvested in Trizol (Gibco BRL, Gaithersburg, Md.) and stored at −70° C. […] RNA solutions were measured by spectrophotometer readings at 260 nm and 280 nm to determine concentration and purity. […]
(§4) Northern and western films as well as stained membranes and pictures of ethidium bromide-stained gels were digitally scanned and analyzed by densitometry. […]

CAT mRNA = test: Northern blot analysis of antioxidant enzyme mRNA: CAT; format: cell-based, human; conditions: 100 μM pTT, 8-72 hours
Method: as §1, §2, §3, §4

total p53 protein = test: Western blot of total p53 (DO-1); format: cell-based, human; conditions: by 36-48 hours, sustained through 72 hours; 40 μM TO, 100 μM pTT
Method: Western blot analysis of proteins from cells treated and harvested in parallel with DCF time course studies was conducted as described above. Membranes were reacted with antibodies to total p53/DO-1 (1:1000 dilution, Oncogene Research Products, Cambridge, Mass.), anti-phoso-p53 (Ser-15) (1:1000 dilution, Cell Signaling Technology, Beverly, Mass.), and p21/Cip1/Waf1 (1:500 dilution, Transduction Laboratories, Lexington, Ky.), followed by appropriate secondary antibodies diluted 1:2000.

Substance | DCF fluorescence (intracellular ROS) compared to diluent [1] | SOD1 mRNA level compared to diluent (SOD1 mRNA) | CAT mRNA level compared to diluent (CAT mRNA) | maximum amount of DCF fluorescence, TO vs pTT ([1]; 40 μM TO compared to 100 μM pTT) | time measurable ROS stimulation starts ([1]; FIG. 14 donor cells, 100 μM pTT, 40 μM TO) | time of measurable ROS stimulation ([1]; FIG. 16 representative time course, donor variability) | ROS production (DCF fluorescence) relative to pTT at the same dose ([1]; within 72 hours, 25, 40 and 100 μM doses) | total p53 (DO-1) protein response, TO vs pTT (total p53 protein)
5′-phosphorylated thymidine dinucleotides [pTT] | statistically significant increase in DCF fluorescence | no difference between pTT- and diluent-treated cells | remain unchanged | – | – | – | – | –
pGTTAGGGTTAG (5' {P}, sugars by position and backbone not given here) [TO] | statistically significant increase in DCF fluorescence | – | – | greater than ROS stimulated by pTT-treated cells | 36 h | ≤ 36 h | up to 1.5 times | greater than to pTT
